# Tested on: HFE−/− mice
# Experiment: Liver iron concentrations, TMPRSS6 siRNA with or without Deferiprone, HFE−/− mice
# Type: in vivo, mouse
# Conditions: 3 mg/kg siRNA conjugate s.c. Day 1 or Day 1 and 22, Deferiprone 0.5 mg/ml in drinking water, Day 43
# Procedure: Three months old C57BL6/J congenic female HFE knock-out mice (−/−) and three months old female C57BL6/J wild type mice (+/+) were used in this study (Herrmann et al., Mol. Med, 2004. 82 (1): p1-3). HFE−/− mice (n=8) were treated on Day 1 (1×) or on Day 1 and on Day 22 (2×) subcutaneously with either PBS (PBS) or 3 mg/kg TMPRSS6 siRNA conjugate (TMP) or 3 mg/kg non-targeting siRNA conjugate (Luc). In addition, cohort 7 to 10 received Deferiprone supplied in drinking water at a concentration of 0.5 mg/ml. Cohorts 1 and 2 were terminated on Day 1 (Predose) all other cohorts on Day 43 (6 weeks after start of the treatment) to collect serum and tissue samples for analyses. Treatment with TMPRSS6 siRNAs enhances the reduction of tissue iron levels by iron chelator. 3 months old HFE−/− (rodent model for hereditary hemochromatosis and iron overload) or wild type mice were used for this study and treated as described in Example 46. Liver tissue samples were collected to assess liver iron concentrations before start of the treatment (predose) and at the end of the study at Day 43 (6 weeks after start of treatments). Liver tissue samples were dried and iron concentrations from dry weights were determined by acid extraction method. At the start of the study liver iron levels were already elevated in HFE−/− compared to wild type control mice (Predose). […]
compound,measurement,value
Cc1c(O)c(=O)ccn1C [Deferiprone],Liver iron content,little to no effect on the liver iron content
